Data as given in US10227361B2, “Fused imidazobenzothiazole compounds” (TORRENT PHARMACEUTICALS LIMITED, priority 2014, dated 2019).
Values belong to the molecule of their own block, whether it stands above or below them.

Columns and labels:
[1] = system: tobacco smoke (TS) and LPS induced chronic COPD model in guinea pigs; experiment: Chronic model of COPD in guinea pigs (TS and LPS, 18 weeks); format: in vivo
Method: (II) Efficacy Studies in Chronic Model of COPD in Guinea Pigs
Guinea pigs were exposed to tobacco smoke (TS) and LPS in an acrylic chamber. Exposure to TS and LPS is given in the manner as illustrated in FIG. 3 in a week for a total of 18 weeks.
Lung delivery of test material was achieved by whole body aerosol exposure for 75 minutes in a chamber. Guinea pig were divided in different dose groups and exposed to vehicle or Compound No. 31 (2 mg/ml). A total quantity of 7.0 ml of either vehicle or Compound No. 31 (suspension formulation with D90<5μ, with Malvern Mastersizer®) was nebulized in chambers to respective groups over 75 mins period. Compound No 31 was administered 2 hr prior to TS/LPS exposure once daily from week 9 to week 18. Control animals were exposed to room air instead of TS and PBS instead of LPS. Lung function and bronchoalveolar lavage (BAL) for each animal was performed 24 hr post last TS exposure.
Lung function assessment in anesthetized and tracheotomized animal was carried out using PFT maneuvers (BUXCO, USA) for determination of various parameters such as Functional Residual Capacity (FRC), Residual volume (RV), Pressure volume and flow volume relationships.
Trachea of animal was cannulated using catheter. Phosphate Buffer Saline (PBS) was used as lavage fluid. A volume of 5.0 ml was gently instilled and withdrawn and collected in microcentrifuge tube placed on ice. This procedure was repeated further 5 times.
(§1) Lavage fluid was separated from cells by centrifugation and supernatant separated. The cell pallet was resuspended in known volume of PBS. Cells in aliquot were stained using Turk solution and total cell numbers were calculated by counting Turk stained aliquot under microscope using haemocytometer.
(§2) The residual cell suspension was resuspended and slides prepared using cyto centrifuge technique (Cytospin 4, Thermo Shandon). The slides were then fixed with methanol, air dried and stained with May Grunwald Giemsa stain. Up to 300 cells were counted and differentiated using standard morphometric techniques under light microscopy.
After collection of BALF lung was fixed under constant pressure using neutral buffered formaline, which is to be used further for histopathological analysis. Hematoxylin and eosin stained slides were used for assessment of lung inflammatory cell influx and alveolar & epithelial inflammatory changes. Periodic acid-Schiff-diastase stained slides were used to evaluate mucin secreting cells and Masson's trichome stained slides were used for assessment of collagen fibers in parenchyma.
All results are presented at individual data for each animal and mean value calculated for each group. Percentage inhibition for the neutrophil was calculated for compound no 31 group against vehicle group.

[2] = system: tobacco smoke induced airway inflammation in mice; experiment: Acute mouse model of tobacco smoke induced airway inflammation (BALF neutrophils); format: in vivo; conditions: BAL fluid, exposure 25 minutes; for Neutrophil (*10^3 cells/animal): Mean ± SEM
Description: The tobacco smoke induced airway inflammation model is used for in vivo efficacy of compound. Many investigators have used acute tobacco smoke (TS) exposure in rodents as models of airway inflammation for quick screening of anti-inflammatory therapies for COPD (J Pharmacol Exp Ther. 2008; 324(3):921-9; J Pharmacol Exp Ther. 2010; 332(3):764-75; Journal of Inflammation 2013, 10(Suppl 1):31 and Eur Respir J Suppl 2006; 663s:3850). Given its position as predominant cause of COPD, animal models using TS exposure would appear to be the logical choice for investigation (Respir Res. 2004; 2; 5:18).
A: Efficacy Studies in Acute Mouse Model of Airway Inflammation
Mice were exposed to tobacco smoke (TS) in an acrylic chamber. Animals were exposed to TS from 8, 12, 16 cigarettes on day1, day2, day 3 respectively. From day 4 onwards till day 11, animals were exposed to TS from 20 cigarettes per day. On 11 days of exposure of mice to TS, significant inflammatory cell recruitment, predominantly neutrophils, to lungs was observed as compared to air exposed control mice (BALF neutrophil levels, nil in air control group vs 93.8±11.7*10^3 cells/animal in smoke exposed vehicle group).
Lung delivery of test compound was achieved by whole body aerosol exposure for 25 minutes in a chamber. Mice were divided in different dose groups and exposed in a chamber for 25 minutes with vehicle or Compound No. 22 (0.3 mg/ml) or Compound No. 22 (3 mg/ml)) or Compound No. 31 (0.3 mg/ml) or Compound No. 31 (1.0 mg/ml). A total quantity of 3.5 ml of either vehicle or test compound formulation (suspension formulation with D90<5μ, with Malvern Mastersizer®) was nebulized in a chamber to respective groups over 25 mins period. Test compounds were administered 2 hr prior to TS exposure from day 6 to day 11. Bronchoalveolar lavage (BAL) was performed 24 hr post last TS exposure.
Trachea of animal was cannulated using catheter. Phosphate Buffer Saline (PBS) was used as lavage fluid. A volume of 0.5 ml was gently instilled and withdrawn and collected in microcentrifuge tube placed on ice. This procedure was repeated further 2 times.
as §1, §2
All results are presented at individual data for each animal and mean value calculated for each group. Percentage inhibition for the neutrophil was calculated for Compound No. 22 & 31 treatment group against vehicle group.

[3] = target: T1, purified recombinant human p38 alpha MAPK (Homo sapiens, UniProt Q16539); experiment: Inhibition of p38 alpha MAPK activity: TR-FRET kinase assay; format: biochemical; conditions: read-out: P38α Inhibition
T1 construct: purchased Millipore, USA
Method: Inhibition of p38 Alpha MAPK Activity: Time-Resolved Fluorescence Resonance Energy Transfer Kinase Standard Assay (TR-FRET Assay)
Compounds of present invention at various concentrations were premixed with DMSO. The experiment was initiated by mixing 0.5% 1.0% DMSO as vehicle/compounds with purified recombinant human p38 alpha MAPK (Millipore, USA) in the wells and 15 min incubation at RT. Thereafter, 30 nM of Biotinylated GST-ATF2 (Activation Transcription Factor2) and 100 μM of ATP were added in to the wells containing reaction mixture, followed by reincubation for 60 minutes at RT. Reaction was terminated by addition of 10 mM of EDTA and detection reagent containing anti-phosphothreonine ATF2 antibody (Perkin Elmer, USA) labelled with europium chelate and APC (Allophycocyanin) labeled streptavidin, into the reaction mixture which was further incubated for 60 minutes at room temperature. The degree of phosphorylation of the substrate (GST-ATF2) was measured using Envision multimode reader (Perkin Elmer). Percentage inhibition of p38 kinase activity was calculated by determining ratio of specific europium 665 nm energy transfer signal to reference 615 nm signal.

[4] = system: tobacco smoke induced airway inflammation in guinea pig; experiment: Acute guinea pig model of tobacco smoke induced airway inflammation (BALF neutrophils); format: in vivo, Guinea pigs; conditions: BAL fluid, 6 mg/ml aerosol, exposure 75 minutes
Description: B. (I) Efficacy Studies in Acute Guinea Pig Model of Airway Inflammation
Guinea pigs were exposed to tobacco smoke (TS) in an acrylic chamber. Animals were exposed to TS from 5, 10, 15 cigarettes on day 1, day 2, day 3 respectively. From day 4 onwards till day 11, animals were exposed to TS from 15 cigarettes per day. On 11 days of exposure of guinea pig to TS, significant inflammatory cell recruitment, predominantly neutrophils, to lungs was observed as compared to air exposed control guinea pig (BALF neutrophil levels, 0.23±0.052*10^6 cells/animal in air control group vs 3.5±0.62*10^6 cells/animal in smoke exposed vehicle group).
Lung delivery of test compound was achieved by whole body aerosol exposure for 75 minutes in a chamber. […] A total quantity of 7.0 ml of either vehicle or test compound formulation (suspension formulation with D90<5μ, with Malvern Mastersizer®) was nebulized in chambers to respective groups over 75 mins period. […]
Lavage fluid was separated from cells by centrifugation and supernatant separated. […] Cells in aliquot were stained using Turk solution and total cell numbers were calculated by counting Turk stained aliquot under microscope using haemocytometer. […]
All results are presented at individual data for each animal and mean value calculated for each group. Percentage inhibition for the neutrophil was calculated for Compound No 31 treatment group against vehicle group.

[5] = treated up to 12-24 weeks; cited from earlier work
[6] = rheumatoid arthritis; possibly; cited from earlier work
[7] = rheumatoid arthritis patients; single low dose tested; compared to placebo; cited from earlier work
[8] = dogs, 6-month safety study; cited from earlier work

T1 sequence (Q16539 whole entry): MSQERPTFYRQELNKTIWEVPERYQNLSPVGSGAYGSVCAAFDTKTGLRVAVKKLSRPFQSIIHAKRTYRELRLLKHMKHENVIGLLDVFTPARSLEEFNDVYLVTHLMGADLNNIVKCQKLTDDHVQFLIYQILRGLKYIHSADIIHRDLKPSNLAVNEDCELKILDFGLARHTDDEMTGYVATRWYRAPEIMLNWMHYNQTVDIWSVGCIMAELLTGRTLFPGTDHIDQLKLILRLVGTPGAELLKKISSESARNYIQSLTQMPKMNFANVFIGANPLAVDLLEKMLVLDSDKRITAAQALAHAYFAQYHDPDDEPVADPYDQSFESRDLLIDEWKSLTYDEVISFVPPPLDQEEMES

inhibition at 0.1 µM ([3]; Concentration 100 nM): 80 to 100%
Compound: COCc1cnc2sc3cc(Oc4ccccc4CNC(=O)Nc4cc(C(C)(C)C)nn4-c4ccc(O)c(Cl)c4)ccc3n12 [Compound 31, 1-[3-tert-butyl-1-(3-chloro-4-hydroxyphenyl)-1H-pyrazol-5-yl]-3-(2-{[3-(methoxymethyl)imidazo[2,1-b][1,3]benzothiazol-7-yl]oxy}benzyl)urea]
% inhib^n (neutrophil, against vehicle group) ([1]; guinea pig chronic COPD model, BALF, 2 mg/ml aerosol, 75 minutes): 52%
Neutrophil (*10^6cells) ([1]; guinea pig chronic COPD model, BALF, 2 mg/ml aerosol, 75 minutes, once daily week 9 to 18, Mean ± SEM): 3.3 ± 0.71 *10^6cells
Composite score (Range) ([1]; lung remodeling, histopathological analysis of lung tissue, 2 mg/ml): 0.4 (0.1 to 0.5)
Average number of mucin secreting cells/10 high power field (Range) ([1]; mucus secretion, 2 mg/ml): 301 (190-420) cells/10 high power field
% Inhibition (neutrophil, against vehicle group) ([2]; 0.3 mg/ml aerosol): 60%
Neutrophil (*10^3 cells/animal) ([2]; 0.3 mg/ml aerosol): 40.3 ± 6.2 *10^3 cells/animal
% Inhibition (neutrophil, against vehicle group) ([2]; 1.0 mg/ml aerosol): 80%
Neutrophil (*10^3 cells/animal) ([2]; 1.0 mg/ml aerosol): 20.4 ± 3.8 *10^3 cells/animal
% Inhibition (neutrophil, against vehicle group) [4]: 48%
Neutrophil (*10^6 cells/animal) ([4]; Mean ± SEM): 1.8 ± 0.28 *10^6 cells/animal

inhibition at 1 µM ([3]; Concentration 1 μM): 80 to 100%
Compound: CC(C)(C)c1cc(NC(=O)NCc2ccccc2Oc2ccc3c(c2)sc2ncc(CO)n23)n(-c2ccc(O)c(Cl)c2)n1 [Compound 22, 1-[3-tert-butyl-1-(3-chloro-4-hydroxyphenyl)-1H-pyrazol-5-yl]-3-(2-{[3-(hydroxymethyl)imidazo[2,1-b][1,3]benzothiazol-7-yl]oxy}benzyl)urea]
% Inhibition (neutrophil, against vehicle group) ([2]; 0.3 mg/ml aerosol): 24%
Neutrophil (*10^3 cells/animal) ([2]; 0.3 mg/ml aerosol): 71.2 ± 13.6 *10^3 cells/animal
% Inhibition (neutrophil, against vehicle group) ([2]; 3 mg/ml aerosol): 62%
Neutrophil (*10^3 cells/animal) ([2]; 3 mg/ml aerosol): 35.2 ± 3.7 *10^3 cells/animal

Compound: Cc1c(F)cc(C(=O)NC2CC2)cc1-c1ccc(C(=O)NCC(C)(C)C)cn1 [Losmapimod]
tolerability in clinical studies [5]: well tolerated

Compound: CNC(=O)c1ccc(C)c(-n2c(C)cc(OCc3ccc(F)cc3F)c(Br)c2=O)c1 [PH-797804]
tolerability in clinical studies [5]: well tolerated

Compound: Cc1ccc(-n2nc(C(C)(C)C)cc2NC(=O)Nc2ccc(OCCN3CCOCC3)c3ccccc23)cc1 [BIRB-796]
reason for withdrawal from Phase II clinical trials [6]: liver enzyme elevations

Compound: O=c1ncn2nc(Sc3ccc(F)cc3F)ccc2c1-c1c(Cl)cccc1Cl [Vx-745]
clinical benefit [7]: significant clinical benefit compared to placebo
toxicity in safety study [8]: undisclosed CNS toxicity
